Data as given in BindingDB's records for PubMed 34286973 (University of Chinese Academy of Sciences, 2021).
pKi: −log10 of the molar value.

Biological target: E3 ubiquitin-protein ligase Mdm2 (Homo sapiens, UniProt Q00987)
Assay: Binding affinity to human MDM2 assessed as dissociation constant

Chain of E3 ubiquitin-protein ligase Mdm2 (Q00987 whole entry): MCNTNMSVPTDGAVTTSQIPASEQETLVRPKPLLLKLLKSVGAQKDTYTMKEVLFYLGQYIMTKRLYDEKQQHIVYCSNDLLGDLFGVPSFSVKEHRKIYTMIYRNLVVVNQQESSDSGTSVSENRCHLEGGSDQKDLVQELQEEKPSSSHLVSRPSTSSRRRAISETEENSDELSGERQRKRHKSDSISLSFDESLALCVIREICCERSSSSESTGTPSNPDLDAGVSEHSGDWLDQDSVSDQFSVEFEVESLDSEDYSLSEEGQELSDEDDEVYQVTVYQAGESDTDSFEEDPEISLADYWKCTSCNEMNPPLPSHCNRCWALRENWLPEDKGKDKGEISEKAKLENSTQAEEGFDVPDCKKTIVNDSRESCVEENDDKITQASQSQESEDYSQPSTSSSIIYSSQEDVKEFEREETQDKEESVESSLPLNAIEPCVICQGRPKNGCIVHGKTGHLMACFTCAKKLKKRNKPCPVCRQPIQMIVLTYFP

pKi: 4.27
Compound: O=C(CN(Cc1ccc(Cl)cc1)C(=O)c1cc2ccccc2[nH]1)NC1CCCCC1
